For series [1], the system named is Leishmania donovani. Put plainly: Antileishmanial activity against Leishmania donovani MHOM/IN/80/Dd8 amastigotes harboring luciferase reporter gene infected in mouse J774 cells at 50 uM after 72 hrs by Steady-Glo luminescence assay relative to control. The format is functional. The settings on record: MHOM/IN/80/Dd8, J774, 72 h. (In general: A reporter such as luciferase makes a cellular process visible.)

The subject of series [2] is Leishmania donovani. In words: Antileishmanial activity against Leishmania donovani MHOM/IN/80/Dd8 amastigotes harboring luciferase reporter gene infected in mouse J774 cells at 100 uM after 72 hrs by Steady-Glo luminescence assay relative to control. The format is functional. The settings on record: MHOM/IN/80/Dd8, J774, 72 h.
Series [3] relates to Leishmania donovani. In words: Antileishmanial activity against Leishmania donovani MHOM/IN/80/Dd8 promastigotes harboring luciferase reporter gene assessed as reduction in parasite viability after 48 hrs by MTT assay. The format is functional, organism-based. The conditions noted are these: MHOM/IN/80/Dd8, 48 h.
In series [4] the test system is Leishmania donovani. In words: Antileishmanial activity against Leishmania donovani MHOM/IN/80/Dd8 amastigotes harboring luciferase reporter gene infected in mouse J774 cells at 3.12 to 100 uM after 48 hrs by Steady-Glo luminescence assay relative to control. The format is functional.
The nature of series [5]: Cytotoxicity against African green monkey Vero cells assessed as cell viability up to 100 uM after 72 hrs by MTT assay relative to control. The format is cell-based. The conditions noted are these: chlorocebus sabaeus, read-out: Activity. On the technique in general: Tetrazolium dyes change colour on reduction, which living cells bring about.
A short description of series [6]: Cytotoxicity against African green monkey Vero cells assessed as reduction in cell viability after 72 hrs by MTT assay. The conditions noted are these: chlorocebus sabaeus. The format is cell-based.
Series [7] can be described thus: Stability in mouse liver microsomes assessed as compound remaining after 1 hr in presence of NADPH by UPLC analysis. Format: ADME, Microsome. The conditions noted are these: read-out: Stability. Background: Liver microsomes are a subcellular fraction often used to study metabolism.
Series [8] can be described thus: Intrinsic clearance in mouse liver microsomes after 1 hr in presence of NADPH by UPLC analysis. The format is ADME, Microsome.
Series [9] deals with Leishmania donovani. In words: Antileishmanial activity against Leishmania donovani promastigotes infected in BALB/c mouse assessed as inhibition in parasite burden in liver at 50 mg/kg, ip administered for 7 days starting at 15 days post-infection and measured after 1 week post last dose Giemsa staining-based assay relative to control. The format is functional.
Series [10] relates to Leishmania donovani. In words: Antileishmanial activity against Leishmania donovani promastigotes infected in BALB/c mouse assessed as inhibition in parasite burden in liver at 200 mg/kg, ip administered for 7 days starting at 15 days post-infection and measured after 1 week post last dose Giemsa staining-based assay relative to control. Format: functional.
Series [11] is described as follows: Toxicity in BALB/c mouse infected with Leishmania donovani promastigotes assessed as survival at 12.5 to 200 mg/kg, ip administered for 7 days starting at 15 days post-infection. Format: organism-based. The conditions noted are these: in vivo.
Series [12] relates to J774. In words: Immunostimulatory activity in mouse J774 cells infected with Leishmania donovani promastigotes assessed as increase in IL-2 cytokine production at 50 uM after 48 hrs by ELISA. Format: functional, cell-based.
Series [13] concerns J774. Put plainly: Immunostimulatory activity in mouse J774 cells infected with Leishmania donovani promastigotes assessed as reduction in TGF-beta cytokine production at 50 uM after 48 hrs by ELISA. Format: functional, cell-based.
Series [14] concerns Leishmania donovani. In words: Induction of mitochondrial dysfunction in Leishmania donovani promastigotes assessed as reduction in mitochondrial membrane potential at 50 uM after 24 hrs by JC-1 staining-based flow cytometric analysis (reference value: 7.73%). The format is functional. More on the design: scale not given: the % may be the effect or the level left.
The test system of series [15] is Leishmania donovani. Put plainly: Induction of mitochondrial membrane depolarization in Leishmania donovani promastigotes assessed as distorted mitochondria at 50 uM after 24 hrs by TEM analysis. Format: functional, organism-based.
The test system of series [16] is Leishmania donovani. Put plainly: Induction of ROS generation in Leishmania donovani promastigotes at 50 uM after 12 hrs by H2DCFDA probe based flow cytometry (reference value: 1.97%). Format: functional.
A short description of series [17]: Clearance in BALB/c mouse at 50 mg/kg, ip by HPLC analysis. Format: ADME, organism-based. The conditions noted are these: in vivo.

Calls of active or inactive are those of the source. The rule behind the calls is not given here. Some results are limits rather than exact numbers.

The term inhibition denotes the share of the control response that was lost under treatment. Broadly, the IC50 is the point on the concentration scale where inhibition reaches its midpoint. As a reminder, the CC50 is the concentration giving 50% cytotoxicity. One may read the inhibition in vivo as how much of the control response was suppressed. By CL/F is commonly meant the apparent clearance, not corrected for the fraction that reaches the circulation. Compound `CCOC(=O)C(C(=O)c1ccc(OC)cc1)C(NC(C)=O)c1cccc2ccccc12` (configuration not stated) returned an inhibition at 50 µM in series [1] of 93.5%. This compound also registered an inhibition at 100 µM in [2] of 95.9%. Besides, the IC50 in [3] turned out to be 9.1 µM. Also, the “inhibition (INH)” value in series [4] is more than 92%. In addition, in series [5], the viability at 72 h is more than 93%. For the same compound, in series [6], the CC50 at 72 h is more than 350 µM. For the same compound, the remaining at 1 h in series [7] came out at 86.9%. Further, the CLH in series [8] stood at 15 µL/min/mg. Also, the inhibition in vivo at 50 mg/kg in series [9] was found to be 91.5%. Also, the inhibition in vivo at 200 mg/kg in [10] came to 92.1%. Further, the figures for the Activity entry in [11], in series [14] and in series [16] were “Non-Toxic”, 63.61% and 50.35%, respectively. The outcome in [12] and in [13] was inactive. In series [15], the result was Active. The compound also had a CL/F in [17] of 664 mL/min/kg.

Source of the values: ChEMBL document CHEMBL4406843, “β-Amino acid derivatives as mitochondrial complex III inhibitors of L. donovani: A promising chemotype targeting visceral leishmaniasis” (Eur J Med Chem, 2019).
